Patent US5990146A, “Benzimidazoles for inhibiting protein tyrosine kinase mediated cellular proliferation” (Warner-Lambert Company, priority 1998, dated 1999)
Where a name gives a salt, the structure may show the parent alone.

What was measured:
[1] = target: T1, PDGF receptor tyrosine kinase (mouse PDGF-β) (Mus musculus, UniProt P05622); test: PDGFr tyrosine kinase assay (poly glutamate-tyrosine phosphorylation); assay type: biochemical; conditions: Table 1; 10 minutes at 25° C.
T1 construct: PCR primers are designed to amplify a fragment of DNA that codes for the intracellular tyrosine kinase domain; made in house; host or cells: Sf9 insect cells (baculovirus), cell lysate
T1 sequence (P05622 599-961 limits assumed): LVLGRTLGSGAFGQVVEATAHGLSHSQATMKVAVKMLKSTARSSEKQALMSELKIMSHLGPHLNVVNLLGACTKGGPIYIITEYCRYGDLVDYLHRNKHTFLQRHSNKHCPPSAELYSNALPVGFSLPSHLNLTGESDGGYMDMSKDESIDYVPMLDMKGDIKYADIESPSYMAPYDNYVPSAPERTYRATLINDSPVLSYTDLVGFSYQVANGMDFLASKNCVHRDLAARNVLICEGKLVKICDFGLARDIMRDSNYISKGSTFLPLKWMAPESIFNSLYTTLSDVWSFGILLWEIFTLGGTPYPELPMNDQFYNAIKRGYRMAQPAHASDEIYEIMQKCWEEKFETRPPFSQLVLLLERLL
Experimental: Platelet Derived Growth Factor Receptor (PDGFr) and Fibroblast Growth Factor Receptor (FGFr)
Full length cDNAs for the mouse PDGF-β and human FGF-1 (flg) receptor tyrosine kinases were obtained from J. Escobedo and are prepared as described in J. Biol. Chem., 262: 1482-1487 (1991). PCR primers are designed to amplify a fragment of DNA that codes for the intracellular tyrosine kinase domain. The fragment is melded into a baculovirus vector, cotransfected with AcMNPV DNA, and the recombinant virus isolated. SF9 insect cells are infected with the virus to overexpress the protein, and the cell lysate is used for the assay.
The assay is performed in 96-well plates (100 μL/incubation/well), and conditions are optimized to measure the incorporation of ^32 p from [γ^32 P]-ATP into a glutamate-tyrosine copolymer substrate. Briefly, to each well is added 82.5 μL of incubation buffer containing 25 mM Hepes (pH 7.0), 150 mM NaCl, 0.1% Triton X-100, 0.2 mM PMSF, 0.2 mM sodium vanadate, 10 mM manganese chloride, and 750 μg/mL of poly (4:1) glutamate-tyrosine followed by 2.5 μL of inhibitor and 5 μL of enzyme lysate (7.5 μg/μL FGFR-TK or 6.0 μg/μL PDGFR-TK) to initiate the reaction. Following a 10 minute incubation at 25° C., 10 μL of [γ^32 P]-ATP (0.4 μCi plus 50 μM ATP) is added to each well and samples are incubated for an additional 10 minutes at 25° C. The reaction is terminated by the addition of 100 μL of 30% trichloroacetic acid (TCA) containing 20 mM sodium pyrophosphate and precipitation of material onto glass fiber filter mats (Wallac). Filters are washed 3 times with 15% TCA containing 100 mM sodium pyrophosphate and the radioactivity retained on the filters counted in a Wallac 1250 Betaplate reader. Nonspecific activity is defined as radioactivity retained on the filters following incubation of samples with buffer alone (no enzyme). Specific enzymatic activity is defined as total activity (enzyme plus buffer) minus nonspecific activity.

[2] = tested on: PDGF receptor autophosphorylation in rat aorta smooth muscle cells; test: PDGF Receptor Autophosphorylation Assay in rat aorta smooth muscle cells; assay type: cell-based; conditions: Table 2, PDGF-BB 30 ng/mL, 2 hours pre-incubation, read-out: IC50, inhibition of PDGF-stimulated receptor autophosphorylation
Experimental: Rat aorta smooth muscle cells (RASMC) are isolated from the thoracic aorta of rats and explanted according to the method of Ross, J. Cell. […] Cells are grown in Dulbecco's modified Eagle's medium (DMEM, Gibco) containing 10% fetal calf serum (FBS, Hyclone, Logan, Utah), 1% glutamine (Gibco) and 1% penicillin/streptomycin (Gibco). Cells are identified as smooth muscle cells by their "hill and valley" growth pattern and by fluorescent staining with a monoclonal antibody specific for SMC μ-actin (Sigma). RASMC are used between passages 5 and 20 for all experiments. Test compounds are prepared in dimethylsulfoxide (DMSO) in order to achieve consistency in the vehicle and to ensure compound solubility. Appropriate DMSO controls are simultaneously evaluated with the test compounds.
Rat aortic smooth muscle cells are grown to confluencey in 100 mm dishes. Growth medium is removed and replaced with serum-free medium and cells are incubated at 37° C. for an additional 24 hours. Test compounds are then added directly to the medium and cells incubated for an additional 2 hours. After 2 hours PDGF-BB is added at a final concentration of 30 ng/mL for 5 minutes at 37° C. to stimulate autophosphorylation of PDGF receptors. Following growth factor treatment, the medium is removed, and cells are washed with cold phosphate-buffered saline and immediately lysed with 1 mL of lysis buffer (50 mM Hepes, pH 7.5, 150 mM NaCl, 10% glycerol, 1% Triton-X 100, 1 mM EDTA, 1 mM EGTA, 50 mM NaF, 1 mM sodium orthovanadate, 30 mM p-nitrophenyl phosphate, 10 mM sodium pyrophosphate, 1 mM phenylmethyl sulfonyl fluoride, 10 μg/mL aprotinin and 10 μg/mL leupeptin). Lysates are centrifuged at 10,000 ×g for 10 minutes. […] Following the incubation, protein-A-sepharose beads are added for 2 hours with continuous mixing, and immune complexes bound to the beads washed 4 times with 1 mL lysis wash buffer. Immune complexes are solubilized in 40 μL of Laemmli sample buffer and electrophoresed in 8-16% SDS polyacrylamide gels. Following electrophoresis, separated proteins are transferred to nitrocellulose and immunoblotted with a 1:1000 dilution of antiphosphotyrosine monoclonal antibody (UBI clone 4G10; #05-321). Following extensive washing with PBS-0.2% tween-20, the blots are incubated with horseradish peroxidase labeled goat antimouse IgG (1:5000; Bio-Rad Inc, Hercules, Calif.) and protein levels are detected by enhanced chemiluminescence (ECL) detection system according to the instructions of the supplier (Amersham Inc, Arlington Heights, Ill.). The density of the protein bands are determined using NIH Image software (v. 1.56) and IC50 values are generated from the densitometric data.

insulin receptor (INSr) = target: T2, insulin receptor (INSr) (Homo sapiens, UniProt P06213); test: Insulin receptor kinase assay; assay type: biochemical; conditions: Table 1; as for EGF receptor with 10 mM manganese chloride
T2 construct: An assay using the intracellular kinase domains of insulin receptor (INSr) is performed
T2 sequence (P06213 1023-1298 limits assumed, species assumed): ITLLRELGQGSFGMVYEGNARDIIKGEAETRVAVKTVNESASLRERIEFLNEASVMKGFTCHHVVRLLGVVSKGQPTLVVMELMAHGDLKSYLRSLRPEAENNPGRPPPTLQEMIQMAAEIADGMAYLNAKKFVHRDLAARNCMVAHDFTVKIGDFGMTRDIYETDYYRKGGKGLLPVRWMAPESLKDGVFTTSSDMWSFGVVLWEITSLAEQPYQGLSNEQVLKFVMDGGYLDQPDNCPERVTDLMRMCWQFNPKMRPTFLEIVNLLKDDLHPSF

SW-620 cells [3] = test: Human Colon Carcinoma Growth Delay Assay; assay type: cell-based; conditions: 72 h, Table 3, SW-620, 3 days
Experimental: Human Colon Carcinoma Growth Delay Assay Human colon carcinoma cells are seeded into 96-well tissue culture plates in a final volume of 180 μL of 10% fetal bovine serum containing growth media and allowed to incubate overnight (37° C., 5% CO2, 95% air). Cells of the SW620 cell line are seeded at 1.0-1.5×10^4 cells per well. Cells of the HCT8 and HT29 cell lines are seeded at 2-4×10^3 cells per well. […] At the end of the incubation period, cells are fixed with 100 μL per well of 10% trichloroacetic acid after removing the drug/culture medium. The plates are washed 5 times with tap water and stained with 100 μL per well of 0.075% sulforhodamine B in 1% acetic acid for 10 minutes. The plates are rinsed 4 times and allowed to air dry. The stain in the wells are solubilized by the addition of 10 mM unbuffered Tris base and the absorbance read using a microtiter plate optical reader. Inhibition of cell growth is calculated from absorbance data of the treated cells compared to untreated control cells. Table 3 provides data for inhibition of growth in human adenocarcinoma cell lines.

[4] = target: T3, Human EGF receptor tyrosine kinase (Homo sapiens, UniProt P00533); test: EGFr tyrosine kinase assay; assay type: biochemical; conditions: Table 1; 10 μM ATP, 25° C., 10 minutes
T3 construct: Human EGF receptor tyrosine kinase is isolated from A431 human epidermoid carcinoma cells; endogenous in cells; host or cells: A431 human epidermoid carcinoma cells (detergent lysate, fast Q sepharose fractions)
T3 sequence (P00533 25-1210): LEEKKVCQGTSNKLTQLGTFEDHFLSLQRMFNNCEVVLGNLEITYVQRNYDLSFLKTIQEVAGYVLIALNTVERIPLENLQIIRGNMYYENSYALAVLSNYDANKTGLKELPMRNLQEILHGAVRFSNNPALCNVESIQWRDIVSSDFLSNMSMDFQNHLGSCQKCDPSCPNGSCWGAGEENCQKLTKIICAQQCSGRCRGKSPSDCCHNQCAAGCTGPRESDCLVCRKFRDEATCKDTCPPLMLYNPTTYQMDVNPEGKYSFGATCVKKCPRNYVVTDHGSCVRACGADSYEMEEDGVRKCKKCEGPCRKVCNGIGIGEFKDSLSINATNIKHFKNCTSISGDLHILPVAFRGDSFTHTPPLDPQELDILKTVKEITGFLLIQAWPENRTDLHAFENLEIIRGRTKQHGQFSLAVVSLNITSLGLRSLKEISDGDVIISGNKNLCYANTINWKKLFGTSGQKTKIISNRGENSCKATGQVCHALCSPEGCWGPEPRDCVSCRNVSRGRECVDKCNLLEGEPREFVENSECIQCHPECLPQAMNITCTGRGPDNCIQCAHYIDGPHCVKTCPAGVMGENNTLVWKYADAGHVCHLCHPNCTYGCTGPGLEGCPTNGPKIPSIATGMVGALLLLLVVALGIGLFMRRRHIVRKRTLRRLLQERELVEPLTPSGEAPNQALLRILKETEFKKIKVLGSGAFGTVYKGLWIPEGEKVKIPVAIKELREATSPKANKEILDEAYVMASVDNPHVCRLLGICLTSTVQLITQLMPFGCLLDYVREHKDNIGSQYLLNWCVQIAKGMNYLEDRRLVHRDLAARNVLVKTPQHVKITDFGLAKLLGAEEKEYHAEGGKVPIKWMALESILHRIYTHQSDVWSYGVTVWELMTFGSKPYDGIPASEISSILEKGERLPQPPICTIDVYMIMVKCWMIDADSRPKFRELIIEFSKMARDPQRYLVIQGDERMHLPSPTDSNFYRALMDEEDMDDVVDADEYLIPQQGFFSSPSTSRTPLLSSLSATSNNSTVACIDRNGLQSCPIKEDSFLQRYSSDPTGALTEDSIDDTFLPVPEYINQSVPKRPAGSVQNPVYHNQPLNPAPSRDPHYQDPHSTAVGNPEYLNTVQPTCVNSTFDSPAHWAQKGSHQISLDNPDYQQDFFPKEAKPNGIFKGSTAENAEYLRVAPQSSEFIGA

SW-620 cells [5] = test: Human Colon Carcinoma Clonogenic Assay; assay type: cell-based
Experimental: SW620 cells are seeded at 7×10^5 per well; HCT8 cells are seeded at 5×10^5 per well; HT29 cells are seeded at 4×10^5 cells per well. Serially diluted drugs are prepared at 200 ×the final concentration and 15 μL are added to each of duplicate wells. Cells are incubated with drug for 2 days, rinsed once with 1 mL of trypsin+EDTA, and then trypsinized with the same trypsin solution. […] One milliliter of each of these cell suspensions is added to duplicate wells of 6 well plates previously prepared with 10% serum/growth medium/ 1% agarose plugs. The cells in these plates are incubated for approximately 2 weeks in the incubator and stained with 1 mL per well of 1 mg/mL iodonitrotetrazolium violet stain. The visible colonies are counted with an electronic optical colony counter and the clonogenicity of treated cells calculated in comparison to untreated control cells.

Protein kinase C (PKC) = test: PKC assay; assay type: biochemical; conditions: Table 1; rat brain preparation
Experimental: Protein kinase C (PKC) is obtained as a rat brain preparation from Promega.
The PKC assay is performed as previously described by Martiny-Baron, et al., J. Biol. Chem. 268: 9194-9197 (1993).

[6] = target: MAP Kinase Pathway (GST-MEK / GST-MAPK); test: Cascade Assay for Inhibitors of the MAP Kinase Pathway (APK Assay); assay type: biochemical; conditions: Table 1; 50 μM ATP, 20 minutes
Experimental: Cascade Assay for Inhibitors of the MAP Kinase Pathway (APK Assay) Incorporation of ^32 P into myelin basic protein (MBP) is assayed in the presence of a glutathione S-transferase fusion protein containing p44MAP kinase (GST-MAPK) and a glutathione S-transferase fusion protein containing p45MEK (GST-MEK). […] Reactions are stopped after 20 minutes by addition of trichloroacetic acid and filtered through a GF/C filter mat. ^32 P retained on the filter mat is determined using a 1205 betaplate. […] To ascertain whether compounds are inhibiting GST-MEK or GST MAPK, two additional protocols are employed. In the first protocol, compounds are added to tubes containing GST MEK, followed by addition of GST-MAPK, MBP and [γ^32 P]ATP. In the second protocol, compounds are added to tubes containing both GST-MEK and GST-MAPK, followed by MBP and [γ^32 P]ATP. Compounds that show activity in both protocols are scored as […], while compounds showing activity in only the first protocol are scored as MEK inhibitors.

[7] = target: T4, FGF receptor tyrosine kinase (human FGF-1 (flg)) (Homo sapiens, UniProt P11362); test: FGFr tyrosine kinase assay (poly glutamate-tyrosine phosphorylation); assay type: biochemical; conditions: Table 1; 10 minutes at 25° C.
T4 construct: PCR primers are designed to amplify a fragment of DNA that codes for the intracellular tyrosine kinase domain; made in house; host or cells: Sf9 insect cells (baculovirus), cell lysate
T4 sequence (P11362 478-767 limits assumed): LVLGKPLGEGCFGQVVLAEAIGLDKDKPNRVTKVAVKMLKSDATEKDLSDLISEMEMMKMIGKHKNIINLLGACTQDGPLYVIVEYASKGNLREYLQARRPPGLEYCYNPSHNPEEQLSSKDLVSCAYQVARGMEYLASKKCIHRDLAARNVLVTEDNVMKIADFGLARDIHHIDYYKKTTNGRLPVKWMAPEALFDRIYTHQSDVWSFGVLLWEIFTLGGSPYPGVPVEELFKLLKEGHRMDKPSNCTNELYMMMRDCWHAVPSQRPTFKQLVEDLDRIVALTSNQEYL
Experimental: Platelet Derived Growth Factor Receptor (PDGFr) and Fibroblast Growth Factor Receptor (FGFr) Full length cDNAs for the mouse PDGF-β and human FGF-1 (flg) receptor tyrosine kinases were obtained from J. Escobedo and are prepared as described in J. Biol. Chem., 262: 1482-1487 (1991). PCR primers are designed to amplify a fragment of DNA that codes for the intracellular tyrosine kinase domain. The fragment is […] into a baculovirus vector, cotransfected with AcMNPV DNA, and the recombinant virus isolated. SF9 insect cells are infected with the virus to overexpress the protein, and the cell lysate is used for the […] and FGFr The assay is performed in 96-well plates (100 μL/incubation/well), and conditions are optimized to measure the incorporation of ^32 p from [γ^32 P]-ATP into a glutamate-tyrosine copolymer substrate. […] The reaction is terminated by the addition of 100 μL of 30% trichloroacetic acid (TCA) containing 20 mM sodium pyrophosphate and precipitation of material onto glass fiber filter mats (Wallac). Filters are washed 3 times with 15% TCA containing 100 mM sodium pyrophosphate and the radioactivity retained on the filters counted in a Wallac 1250 Betaplate reader. Nonspecific activity is defined as radioactivity retained on the filters following incubation of samples with buffer alone (no enzyme). Specific enzymatic activity is defined as total activity (enzyme plus buffer) minus nonspecific activity.

c-Src = target: T5, c-Src (Homo sapiens, UniProt P12931); test: c-Src kinase assay; assay type: biochemical; conditions: Table 1; 5 μM ATP, room temperature, 10 minutes
T5 construct: made in house; host or cells: baculovirus infected insect cells
T5 sequence (P12931 whole entry, species assumed): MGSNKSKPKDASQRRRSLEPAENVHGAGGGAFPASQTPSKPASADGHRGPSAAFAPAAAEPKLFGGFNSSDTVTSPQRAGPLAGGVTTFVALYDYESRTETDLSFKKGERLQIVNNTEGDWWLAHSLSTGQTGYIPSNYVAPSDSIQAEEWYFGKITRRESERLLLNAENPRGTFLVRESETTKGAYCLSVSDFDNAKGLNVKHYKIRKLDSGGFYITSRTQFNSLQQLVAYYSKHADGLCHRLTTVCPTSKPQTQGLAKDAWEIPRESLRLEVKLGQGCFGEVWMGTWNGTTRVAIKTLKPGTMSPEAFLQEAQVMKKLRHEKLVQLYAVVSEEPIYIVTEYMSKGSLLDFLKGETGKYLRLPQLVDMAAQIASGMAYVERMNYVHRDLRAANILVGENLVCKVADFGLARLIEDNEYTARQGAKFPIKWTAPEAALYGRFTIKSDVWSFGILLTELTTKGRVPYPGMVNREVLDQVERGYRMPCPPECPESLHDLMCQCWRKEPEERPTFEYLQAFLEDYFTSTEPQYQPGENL
Experimental: c-Src kinase is purified from baculovirus infected insect cell lysates using an antipeptide monoclonal antibody directed against the N-terminal 2-17 amino acids as described previously by Fry, et al, Anticancer Drug Design. 9: 331-351 (1994). […] At the end of the lysate incubation, the beads are rinsed 3 times in lysis buffer, resuspended in lysis buffer containing 10% glycerol, and frozen. These latex beads are thawed, rinsed 3 times in assay buffer which is comprised of 40 mM tris pH 7.5, 5 mM magnesium chloride, and suspended in the same buffer. […] The reaction is started at room temperature by addition of the ATP and quenched 10 minutes later by the addition of 125 μL of 30% TCA, 0.1 M sodium pyrophosphate for 15 minutes on ice. The plate is then filtered and the wells washed with two 250-μL aliquots of 15% TCA, 0.1 M pyrophosphate. The filters are punched, counted in a liquid scintillation counter, and the data examined for inhibitory activity in comparison to a known inhibitor such as erbstatin. The method is described more fully in J. Med. Chem., 37: 598-609 (1994).

[8] = Table 3, SW-620, 2 days drug exposure, approximately 2 weeks colony growth, read-out: SW-620 Clonogenic IC50

SMILES | IC50 [1] | IC50 [2] | IC50 (insulin receptor (INSr)) | IC50 (SW-620 cells [3]) | IC50 [4] | IC50 (SW-620 cells [5]; SW-620, read-out: SW-620 Clonogenic IC50) | IC50 (SW-620 cells [5]; [8]) | IC50 (Protein kinase C (PKC)) | IC50 [6] | IC50 [7] | IC50 (c-Src)
Oc1cccc2c1ncn2-c1ccccc1 [Example 11, 4-Hydroxy-1-phenylbenzimidazole Hydrochloride] | 10.6 µM | > 10 µM | > 50 µM | > 25 µM | > 50 µM | > 5 µM | 2.1 µM | – | – | – | –
COc1ccc2c(c1)ncn2-c1ccccc1 [Example 13, 5-Methoxy-1-phenylbenzimidazole Hydrochloride] | 0.4 µM | 2 µM | > 50 µM | > 25 µM | < 50 µM | – | > 5 µM | > 50 µM | 5 µM | 22 µM | –
CN(C)CCCOc1ccc2c(c1)ncn2-c1ccccc1 [Example 37, 5-[3--(N,N-Dimethylamino)propoxyl]-1-phenylbenzimidazole Dihydrochloride] | 0.2 µM | – | > 50 µM | – | > 40 µM | – | – | > 50 µM | 27 µM | 4.1 µM | 14 µM
c1ccc(-n2cnc3cc(OCCN4CCOCC4)ccc32)cc1 [Example 38, 5-[2-(4-Morpholino)ethoxy]-1-phenylbenzimidazole Dihydrochloride] | 0.7 µM | 0.7 µM | > 50 µM | – | > 40 µM | – | – | > 50 µM | 45 µM | 28 µM | > 50 µM
c1ccc(-n2cnc3cc(OCCCN4CCOCC4)ccc32)cc1 [Example 39, 5-[3-(4-Morpholino)propoxy]-1-phenylbenzimidazole Dihydrochloride] | 0.2 µM | – | > 50 µM | – | > 40 µM | – | – | > 50 µM | 18 µM | 9.8 µM | > 50 µM
COc1ccc2c(c1)ncn2-c1ccc(N)cc1 [Example 45, 1-(4-Aminophenyl)-5-methoxybenzimidazole Dihydrochloride] | 0.3 µM | 3.5 µM | > 50 µM | – | < 40 µM | – | – | > 50 µM | 37 µM | 18 µM | > 50 µM
c1ccc(-n2cnc3cc(OCCCCN4CCOCC4)ccc32)cc1 [Example 59, 5-[4-(4-Morpholino)butoxy]-1]phenylbenzimidazole Dihydrochloride] | 0.3 µM | 2.2 µM | – | > 25 µM | – | – | > 25 µM | – | – | 12 µM | 25 µM
